Experimental data as given in patent US9370547B2, “Compositions and methods for treating ischemia” (UNIVERSITY OF KENTUCKY RESEARCH FOUNDATION, priority 2014, dated 2016).

How the values were obtained:
WT mice after MCAo = conditions: mouse, in vivo
[1] = cited from earlier work
[2] = test system: claudin-5 expression in mouse brain endothelial cells; test: Claudin-5 western blot and immunocytochemistry in brain endothelial cells after OGD; type: cell-based
Method: FIG. 11A includes a claudin-5 western blot of brain endothelial cells after OGD that were treated as labeled.
FIG. 11B includes plot showing the quantification of claudin-5 expression normalized to Ponceau S total protein stain for the samples show in FIG. 11A.
FIG. 11C includes images showing claudin-5 immunocytochemistry of WT mouse brain endothelial cells either just prior to (control) or 24 hours after OGD treated as labeled. Scale bar is 5 μm.

Substance	animal vital signs upon administration (WT mice after MCAo)	tolerability (signs of illness such as fur ruffling, weight differences) (WT mice after MCAo)	serum half-life ([1]; for some subjects)	tissue distribution ([1]; in vivo)	safety of intravenous administration ([1]; intravenous)	claudin-5 levels compared with ATN-161 and normoxic control [2]
Ac-PHSCN-NH2 [ATN-161]	did not alter animal vital signs	well tolerated	3 to 5 h	high tissue distribution	can be safely administered intravenously	
Ac-PhScN—NH2						more effective than ATN-161
